We go through one substance from US20240398999A1, “DC BIOMIMETIC MEMBRANE NANOPARTICLE LOADED WITH NIR-II AIE DYE, PREPARATION METHOD THEREFOR AND USE THEREOF” (SHENZHEN INSTITUTES OF ADVANCED TECHNOLOGY CHINESE ACADEMY …, priority 2023, published 2024).

For series [1] the following is noted: 808 nm laser, 3 min irradiation per cycle.
Description: The nanoparticle solution filled with the BPBBT dot was fixed and irradiated by using an 808 nm laser. Meanwhile, the temperature of the solution was monitored in real time by using a thermal imaging camera. The laser was turned off after 3 min of irradiation, and the laser was turned on again when the temperature was recovered to the initial temperature. In this way, 5 cycles were repeated, and whether the highest temperature of each cycle was the same or not was observed so as to judge the stability of photothermal conversion.
The conditions of series [2]: BPBBT solution in 5% THF at the same concentration (50 μM); stated as known; cited from earlier work.

Consider “4,8-bis[4-(N, N-bis(4-octyloxyphenyl)amino)phenyl]benzo[1,2-c:4,5-c′]bis([1,2,5]thiadiazole) [BPBBT]”, for which, in series [1], the maximum temperature entry was “about 48 °C”. The photothermal conversion efficiency in series [2] is listed as 22%.
